“Also recorded” adds a separate entry of the source. Where two headings read alike, the source gives them in different places.
How the values were obtained:
healthy participants [1] = assay: Safety and tolerability; assay type: in vivo, human
From the text: (§1) Subjects underwent 3 separate treatment periods. […] PD will be unblinded for treatment but not subject. […] Participant Disposition
Moreover, the only participant who developed phlebitis received placebo. […] No clinically meaningful differences between treatments were identified in any other safety parameter.

healthy participants [2] = details: cited from earlier work
healthy participants [3] = assay: Sedation (BIS), cardiovascular response and arterial blood gases; assay type: in vivo, human; details: versus placebo
healthy participants [4] = system: healthy participants
[5] = Pharmacokinetics of Compound A, plasma concentrations after IV infusion; assay type: in vivo, human; details: for AUC(0-inf) / AUC(0-t) / clearance / Cmax / half-life / Tmax: both sexes, human, plasma, intravenous
Experimental: as §1
Pharmacokinetic samples were measured up to 24 hours after the start of the IV infusion. […] Therefore, a fast decrease in concentration was observed, followed by a slow […].

[6] = Compound A (dose not given; third treatment), first hypoxic measurement under hypercapnic conditions, without propofol
[7] = Compound A (dose not given; third treatment), hypoxic/hypercapnic measurement during propofol high dose
[8] = Compound A low dose, first hypoxic measurement under hypercapnic conditions, without propofol
[9] = Compound A low dose, hypoxic/hypercapnic measurement during propofol high dose

CCCNc1nc(NCCC)nc(N(C)OC)n1 [Compound A]
Nausea probably related to treatment (healthy participants [1]; Compound A high dose, IV ondansetron pre-treatment): single occurrence of mild nausea
Treatment-related SAEs (healthy participants [1]; in vivo): No treatment-related SAEs
Trend in AEs (healthy participants [1]; in vivo): mild infusion site pain and related events
Safety and tolerability (healthy participants [1]; two dose levels, healthy participants): safe and well tolerated; also recorded: favourable safety and tolerability profiles
Ventilatory stimulation (healthy participants [2]; high dose (1.1 mg/kg/h), healthy participants, Roozekrans et al., 2014): clear ventilatory stimulation
Stimulatory effects on minute ventilation (healthy participants [2]; low dose (0.4 mg/kg/h), McLeod et al., 2014): no/minimal stimulatory effects on minute ventilation
Nausea in previous studies (healthy participants [2]; previous studies): nausea was associated with Compound A administration
Cardiovascular response (healthy participants [3]): No clinically meaningful difference on cardiovascular response
Level of propofol-induced sedation / arousal, BIS (healthy participants [3]; with clinically relevant doses of propofol): did not impact the level of the propofol-induced sedation; also recorded: did not lead to a significant difference in arousal compared to placebo
Minute ventilation during hypoxic measurement (healthy participants [4]; [6]): 38.8 L/min
Minute ventilation, pre-hypoxic baseline (healthy participants [4]; [6]): 8.5 L/min
Minute ventilation during hypoxic measurement (healthy participants [4]; [7]): 27.4 L/min
Minute ventilation, pre-hypoxic baseline (healthy participants [4]; [7]): 8.4 L/min
ETCO2 difference prior to each hypoxic measurement (healthy participants [4]; Compound A high dose compared to placebo and low dose): approximately 3 mmHg
Increase in minute ventilation induced by hypercapnia (healthy participants [4]; Compound A high dose group, during high dose propofol): more pronounced
Respiratory rate at pre-hypoxic timepoints (healthy participants [4]; Compound A high dose, during propofol infusion): difference between Compound A high dose compared to placebo and Compound A low dose could be observed
ETCO2 compared to placebo (healthy participants [4]; Compound A low dose): comparable to placebo treatment
Hypoxic Sensitivity, First LSM of contrast (healthy participants [4]; Compound A low dose (2 mg/kg/h 10 min then 0.4 mg/kg/h 260 min IV)): 0.747 L/min/%
Minute ventilation during hypoxic measurement (healthy participants [4]; [8]): 30.3 L/min
Minute ventilation, pre-hypoxic baseline (healthy participants [4]; [8]): 8.1 L/min
Minute ventilation during hypoxic measurement (healthy participants [4]; [9]): 15.0 L/min
Minute ventilation, pre-hypoxic baseline (healthy participants [4]; [9]): 6.3 L/min
Hypoxic sensitivity compared to placebo (healthy participants [4]; both with and without co-administration of propofol): increased hypoxic sensitivity compared to placebo
Hypoxic Sensitivity, First LSM of contrast (healthy participants [4]; high dose (2 mg/kg/h 20 min then 1.1 mg/kg/h 250 min IV)): 1.179 L/min/%
Hypoxic Sensitivity, Estimate of the difference (healthy participants [4]; high dose minus placebo): 0.575 L/min/%
Hypoxic sensitivity during propofol (healthy participants [4]; in vivo, 1.1 mg/kg): remain similar to pre-propofol values
Hypoxic Sensitivity, Estimate of the difference (healthy participants [4]; low dose minus placebo): 0.144 L/min/%
AUCinf Min ([5]; ENA-001 high dose, N 12): 6235 ng·h/mL
AUClast Max ([5]; ENA-001 high dose, N 12): 13169 ng·h/mL
AUClast Min ([5]; ENA-001 high dose, N 12): 6169 ng·h/mL
CL Max ([5]; ENA-001 high dose, N 12): 67.8 L/h
CL Min ([5]; ENA-001 high dose, N 12): 23.8 L/h
Cmax Min ([5]; ENA-001 high dose, N 12): 1090 ng/mL
Cmin Geometric Mean ([5]; ENA-001 high dose, N 12): 867.4 ng/mL
Cmin Max ([5]; ENA-001 high dose, N 12): 1230 ng/mL
Cmin Mean ([5]; ENA-001 high dose, N 12): 886.6 ng/mL
Cmin Median ([5]; ENA-001 high dose, N 12): 859 ng/mL
Cmin Min ([5]; ENA-001 high dose, N 12): 601 ng/mL
t1/2 Max ([5]; ENA-001 high dose, N 12): 8.40 h
t1/2 Min ([5]; ENA-001 high dose, N 12): 3.39 h
tmax Max ([5]; ENA-001 high dose, N 12): 4.50 h
tmax Min ([5]; ENA-001 high dose, N 12): 1.92 h
AUCinf Max ([5]; ENA-001 low dose, N 12): 3148 ng·h/mL
AUCinf Min ([5]; ENA-001 low dose, N 12): 2155 ng·h/mL
AUClast Max ([5]; ENA-001 low dose, N 12): 3059 ng·h/mL
AUClast Min ([5]; ENA-001 low dose, N 12): 2151 ng·h/mL
CL Max ([5]; ENA-001 low dose, N 12): 75.5 L/h
CL Min ([5]; ENA-001 low dose, N 12): 41.9 L/h
Cmax Max ([5]; ENA-001 low dose, N 12): 563 ng/mL
Cmax Min ([5]; ENA-001 low dose, N 12): 375 ng/mL
Cmin Geometric Mean ([5]; ENA-001 low dose, N 12): 299.6 ng/mL
Cmin Max ([5]; ENA-001 low dose, N 12): 379 ng/mL
Cmin Mean ([5]; ENA-001 low dose, N 12): 302.3 ng/mL
Cmin Median ([5]; ENA-001 low dose, N 12): 296 ng/mL
Cmin Min ([5]; ENA-001 low dose, N 12): 251 ng/mL
t1/2 Max ([5]; ENA-001 low dose, N 12): 6.99 h
t1/2 Min ([5]; ENA-001 low dose, N 12): 3.00 h
tmax Max ([5]; ENA-001 low dose, N 12): 4.50 h
tmax Min ([5]; ENA-001 low dose, N 12): 3.33 h
Plasma values at 24 hours post-dose ([5]; all participants, both dose levels): above the LLOQ
AUC(0-inf) ([5]; ENA-001 high dose, N 12, read-out: AUCinf Geometric Mean): 8440 ng·h/mL
AUC(0-inf) ([5]; ENA-001 high dose, N 12, read-out: AUCinf Mean): 8710 ng·h/mL
AUC(0-inf) ([5]; ENA-001 high dose, N 12, read-out: AUCinf Median): 7800 ng·h/mL
AUC(0-t) ([5]; ENA-001 high dose, N 12, read-out: AUClast Geometric Mean): 8240 ng·h/mL
AUC(0-t) ([5]; ENA-001 high dose, N 12, read-out: AUClast Mean): 8500 ng·h/mL
AUC(0-t) ([5]; ENA-001 high dose, N 12, read-out: AUClast Median): 7540 ng·h/mL
clearance ([5]; ENA-001 high dose, N 12, read-out: CL Geometric Mean (converted)): 735 mL/min
clearance ([5]; ENA-001 high dose, N 12, read-out: CL Mean (converted)): 756 mL/min
clearance ([5]; ENA-001 high dose, N 12, read-out: CL Median (converted)): 772 mL/min
Cmax ([5]; ENA-001 high dose, N 12, read-out: Cmax Geometric Mean): 1510 ng/mL
Cmax ([5]; ENA-001 high dose, N 12, read-out: Cmax Mean): 1560 ng/mL
Cmax ([5]; ENA-001 high dose, N 12, read-out: Cmax Median): 1520 ng/mL
half-life ([5]; ENA-001 high dose, N 12, read-out: t1/2 Geometric Mean (converted)): 5.49 h
half-life ([5]; ENA-001 high dose, N 12, read-out: t1/2 Mean (converted)): 5.64 h
half-life ([5]; ENA-001 high dose, N 12, read-out: t1/2 Median (converted)): 5.63 h
Tmax ([5]; ENA-001 high dose, N 12, read-out: tmax Geometric Mean): 3.84 h
Tmax ([5]; ENA-001 high dose, N 12, read-out: tmax Mean): 3.96 h
Tmax ([5]; ENA-001 high dose, N 12, read-out: tmax Median): 4.36 h
AUC(0-inf) ([5]; ENA-001 low dose, N 12, read-out: AUCinf Geometric Mean): 2660 ng·h/mL
AUC(0-inf) ([5]; ENA-001 low dose, N 12, read-out: AUCinf Mean): 2670 ng·h/mL
AUC(0-inf) ([5]; ENA-001 low dose, N 12, read-out: AUCinf Median): 2650 ng·h/mL
AUC(0-t) ([5]; ENA-001 low dose, N 12, read-out: AUClast Geometric Mean): 2610 ng·h/mL
AUC(0-t) ([5]; ENA-001 low dose, N 12, read-out: AUClast Mean): 2630 ng·h/mL
AUC(0-t) ([5]; ENA-001 low dose, N 12, read-out: AUClast Median): 2630 ng·h/mL
clearance ([5]; ENA-001 low dose, N 12, read-out: CL Geometric Mean (converted)): 918 mL/min
clearance ([5]; ENA-001 low dose, N 12, read-out: CL Mean (converted)): 929 mL/min
clearance ([5]; ENA-001 low dose, N 12, read-out: CL Median (converted)): 885 mL/min
Cmax ([5]; ENA-001 low dose, N 12, read-out: Cmax Geometric Mean): 463 ng/mL
Cmax ([5]; ENA-001 low dose, N 12, read-out: Cmax Mean): 468 ng/mL
Cmax ([5]; ENA-001 low dose, N 12, read-out: Cmax Median): 477 ng/mL
half-life ([5]; ENA-001 low dose, N 12, read-out: t1/2 Geometric Mean (converted)): 4.99 h
half-life ([5]; ENA-001 low dose, N 12, read-out: t1/2 Mean (converted)): 5.1 h
half-life ([5]; ENA-001 low dose, N 12, read-out: t1/2 Median (converted)): 5.05 h
Tmax ([5]; ENA-001 low dose, N 12, read-out: tmax Geometric Mean): 4.25 h
Tmax ([5]; ENA-001 low dose, N 12, read-out: tmax Mean): 4.26 h
Tmax ([5]; ENA-001 low dose, N 12, read-out: tmax Median): 4.33 h
AUC(0-inf) ([5]; high dose, read-out: highest individual AUCinf): 13800 ng·h/mL
Cmax ([5]; high dose, read-out: highest individual Cmax): 2600 ng/mL
AUC(0-inf) ([5]; high dose, read-out: mean (±SD) AUCinf): 8710 ± 2420 ng·h/mL
Cmax ([5]; high dose, read-out: mean (±SD) Cmax): 1560 ± 437 ng/mL
half-life ([5]; high dose, read-out: range of apparent terminal t1/2): 3.39 to 8.4 h
Tmax ([5]; high dose, read-out: tmax (mean peak concentrations)): 3.96 h
AUC(0-inf) ([5]; low dose, read-out: mean (±SD) AUCinf): 2670 ± 330 ng·h/mL
Cmax ([5]; low dose, read-out: mean (±SD) Cmax): 468 ± 68.2 ng/mL
half-life ([5]; low dose, read-out: range of apparent terminal t1/2): 3 to 6.99 h
Tmax ([5]; low dose, read-out: tmax (mean peak concentrations)): 4.26 h
Plasma concentration decline after infusion stop ([5]; from 4 hour 30 minutes onwards): bi-exponential decline
Average tmin ([5]; high dose): 1.133 h
Geometric mean Cav30-270 min (average arterial plasma concentration during 30-270 min) ([5]; high dose): 1161.69 ng/mL
Maximum concentration on average following IV infusion loading dose ([5]; high dose, 20 minutes loading dose 2.0 mg/kg/h): 1162.833 ng/mL
average Compound A concentration per propofol dosing interval ([5]; high dose, high propofol 200-270 min): 1412.28 ng/mL
average Compound A concentration per propofol dosing interval ([5]; high dose, low propofol 115-185 min): 1206.27 ng/mL
average Compound A concentration per propofol dosing interval ([5]; high dose, no propofol 30-100 min): 971.79 ng/mL
Effect of propofol on Compound A concentrations ([5]; in vivo): No apparent effect
Dose proportionality of PK ([5]; investigated dosing range, dose normalised AUC and Cav): Dose proportionality of PK over the investigated dosing range was apparent; also recorded: Dose proportionality of PK was apparent over the investigated dosing range; also recorded: showed dose proportionality over the investigated dosing range
Average tmin ([5]; low dose): 1.201 h
Geometric mean Cav30-270 min (average arterial plasma concentration during 30-270 min) ([5]; low dose): 366.40 ng/mL
Maximum concentration on average following IV infusion loading dose ([5]; low dose, 10 minutes loading dose 2.0 mg/kg/h): 857.000 ng/mL
average Compound A concentration per propofol dosing interval ([5]; low dose, high propofol 200-270 min): 427.54 ng/mL
average Compound A concentration per propofol dosing interval ([5]; low dose, low propofol 115-185 min): 359.75 ng/mL
average Compound A concentration per propofol dosing interval ([5]; low dose, no propofol 30-100 min): 323.41 ng/mL
Steady state ([5]; within the 260 and 250 minute infusions): steady-state concentrations were not reached; also recorded: did not reach steady state

From patent US12138267B2, “Methods of treating respiratory depression modulated by a non-opioid agent” (Enalare Therapeutics Inc., priority 2021, dated 2024)
